# Legend:
# [1] = Recovery of 3-OH isoC17:0 fatty acid from brains of mice with EAE (GC-MS); format: in vivo, mouse; settings: mice that received PE DHC and had a disease score greater than 3.0, versus PBS or EtOH controls
# Protocol: Mice treated with PBS, EtOH or with 25 ng, 250 ng, or 2.5 μg PE DHC were sacrificed after day 20 post-EAE immunization. The brains were removed and extracted for phospholipids according to the method of Bligh and Dyer as previously described in Nichols “Distribution of 3-hydroxy iC17:0 in subgingival plaque and gingival tissue samples: Relationship to adult periodontitis” Infect. Immun. 62:3753-3760 (1994). Lipid extracts were dissolved in hexane isopropanol:water (6:8:0.75, v/v/v/) and three 0.5 mg aliquots were dispensed into glass tubes supplemented with 30 ng of isobranched C20:0. […] Lipids were treated to form pentofluorobenzyl ester, trimethylsilyl ether derivatives and analyzed by negative ion chemical ionization GC-MS, as described in Nichols (1994). Fatty acid recovery was quantified by selected ion monitoring for characteristic fatty acid negative ions. The data were expressed as picograms of 3-OH isobranched (iso)C17:0 per 0.5 mg of total brain lipid extracted.
# The cumulative disease index (CDI) was obtained by summing the daily average disease scores through Day 20. A mean of these daily disease scores (Mean Daily Disease) (+/−SEM) was calculated based on the 20 days of observation. […] Bacterial fatty acid levels in brain lipid extracts for each treatment group were evaluated using least squares linear regression analysis that included calculation of correlation coefficients. […]
# bone marrow DCs (BMDCs) = assay: Stimulation of bone marrow dendritic cells, IL-6 ELISA and surface activation markers; format: cell-based, mouse; settings: for IL-6 secretion: plate-bound LPS 1 μg, MMP 10 μg, PE DHC 2.5 μg, 18 hrs
# Protocol: Bone marrow cells from C57BL/6 and TLR2^−/− mice were cultured at 2×10^5 cells/ml in RPMI containing 10% FCS, 2-ME, and 20 ng/ml recombinant murine GM-CSF for 9 days. Bone marrow DCs (BMDCs) were harvested at Day 9 and were greater than 80% CD11c+. LPS (1 μg), MMP (10 μg) (a bacterial lipoprotein and known TLR-2 ligand (Bachem H-9460), PE DHC (2.5 μg) or 70% EtOH, all in 20 ul volumes, were allowed to dry in the wells of a 24-well plate overnight prior to the addition of BMDCs. BMDCs were cultured in the ligand-bound 24-well plates at 1×10^6 cells/ml in RPMI containing GM-CSF. After 18 hrs, culture supernatants were harvested and tested for IL-6 via ELISA.
# The effects of PE DHC on antigen presenting cell (APC) activation in vitro were examined Dendritic cells (BMDCs) (>85% CD11c+) were derived from the bone marrow of WT or TLR2^−/− mice and cultured either alone or with EtOH, LPS, MMP (a TLR2 ligand), or PE DHC. After 18 hrs supernatants were assayed for IL-6. […] BMDCs were also assayed for expression of the surface activation markers B7.2 and MHC class II.
substance,measurement,setting,value
phosphoethanolamine dihydroceramide [PE DHC],Brain level of 3-OH isoC17:0 fatty acid,[1],higher levels of 3-OH isoC17:0 fatty acid
same,IL-6 secretion,bone marrow DCs (BMDCs); TLR2−/− BMDCs,did not result in IL-6 secretion
same,IL-6 secretion,bone marrow DCs (BMDCs); WT BMDCs,levels of IL-6 secretion that were almost equivalent to that seen with LPS
same,Expression of surface activation markers B7.2 and MHC class II,bone marrow DCs (BMDCs); WT and TLR2−/− BMDCs,increased MHC II and B7.2 expression on WT but not TLR2^−/− BMDCs

# From patent US20160084855A1, “Compositions and Methods for Modulation and Detection of Immune and Inflammatory Responses” (UNIVERSITY OF CONNECTICUT, priority 2013, published 2016)
